From patent US20120040946A1 (APEX LABORATORIES PRIVATE LIMITED, priority 2009, published 2012)
Structures can show the parent of a compound that is named as a salt.

What was measured:
[1] = tested on: gram-negative bacteria; settings: cited from earlier work
[2] = 20° C.; cited from earlier work
[3] = tested on: bacterial cells; settings: in vitro; cited from earlier work
[4] = Stability analysis of raw API (3 months, open & closed Petri dish) by stability indicating HPLC method and titration method; assay type: physicochemical; settings: for Sodium Fusidate Assay(%) HPLC / Sodium Fusidate Assay(%) Titration / Percentage (%) HPLC / Percentage (%) Titration / Fusidic Acid Assay (%) HPLC / Fusidic Acid Assay (%) Titration / Percentage Drop (%) HPLC / Percentage Drop (%) Titration: after 3 months; for Percentage (%) HPLC / Percentage (%) Titration: Sodium Fusidate API; for Percentage Drop (%) HPLC / Percentage Drop (%) Titration: Fusidic acid API
[5] = tested on: Staphylococcus aureus; test: In vitro antimicrobial zone of inhibition study; assay type: cell-based
Text: The antimicrobial/antibacterial activity of the product is confirmed by the in vitro Antimicrobial Zone of Inhibition studies for the product against Staphylococcusaureus. The details of the studies are detailed below in Table 16.

[6] = at the time of receipt of the API from the supplier

CC(=O)O[C@H]1C[C@@]2(C)[C@@H](C[C@@H](O)[C@H]3[C@@]4(C)CC[C@@H](O)[C@@H](C)[C@@H]4CC[C@@]32C)/C1=C(\CCC=C(C)C)C(=O)O [Sodium Fusidate, 3μ,11μ,16β-Trihydroxy 29-nor-8μ, 9β, 13μ, 14β-dammara-17(20) [10,21-cis], 24-dien-21-oic acid 16-acetate, sodium salt]
activity against gram-negative bacteria [1]: virtually inactive | solubility in water [2]: soluble in one part of water | time DNA synthesis continues after contact [3]: 45 min | time until bacterial cells stop dividing after contact with the antibiotic [3]: ≤ 2 min | Sodium Fusidate Assay(%) HPLC ([4]; 45° C. (Closed)): 92.96% | Sodium Fusidate Assay(%) Titration ([4]; 45° C. (Closed)): 97.16% | Sodium Fusidate Assay(%) HPLC ([4]; 45° C. (Open)): 92.65% | Sodium Fusidate Assay(%) Titration ([4]; 45° C. (Open)): 97.07% | loss in 3 Months ([4]; 45° C. (open condition), sodium salt): about 6% | Sodium Fusidate Assay(%) HPLC ([4]; RT (Closed)): 97.67% | Sodium Fusidate Assay(%) Titration ([4]; RT (Closed)): 98.85% | Sodium Fusidate Assay(%) HPLC ([4]; RT (Open)): 96.25% | Sodium Fusidate Assay(%) Titration ([4]; RT (Open)): 97.71% | Percentage (%) HPLC ([4]; 45° C. (Closed)): 5.74% | Percentage (%) Titration ([4]; 45° C. (Closed)): 1.54% | Percentage (%) HPLC ([4]; 45° C. (Open)): 6.05% | Percentage (%) Titration ([4]; 45° C. (Open)): 1.63% | Percentage (%) HPLC ([4]; RT (Closed)): 1.03% | Percentage (%) Titration ([4]; RT (Closed)): −0.15% | Percentage (%) HPLC ([4]; RT (Open)): 2.45% | Percentage (%) Titration ([4]; RT (Open)): 0.99% | stability as an API compared with Fusidic acid ([4]; Tables 1 and 2): more stable than Fusidic acid | Sodium Fusidate Initial (%) [4, 6]: 98.7% | loss in 3 Months ([4]; room temperature (open condition), sodium salt): about 2.5%

CC1(C)S[C@@H]2[C@H](NC(=O)Cc3ccccc3)C(=O)N2[C@H]1C(=O)O [Penicillin G]
Inference ([5]; Dose 10 Units): Resistant | Zone Diameter Range (mm) ([5]; Dose 10 Units): 21-27 mm

CC(=O)O[C@H]1C[C@@]2(C)[C@@H](C[C@@H](O)[C@H]3[C@@]4(C)CC[C@@H](O)[C@@H](C)[C@@H]4CC[C@@]32C)/C1=C(\CCC=C(C)C)C(=O)O [Fusidic Acid, Fusidic acid]
Fusidic Acid Assay (%) HPLC ([4]; 45° C. (Closed)): 92.12% | Fusidic Acid Assay (%) Titration ([4]; 45° C. (Closed)): 99.10% | Fusidic Acid Assay (%) HPLC ([4]; 45° C. (Open)): 89.52% | Fusidic Acid Assay (%) Titration ([4]; 45° C. (Open)): 98.52% | loss in 3 Months ([4]; 45° C. (open condition)): about 11% | Percentage Drop (%) HPLC ([4]; 45° C. (Closed)): 8.48% | Percentage Drop (%) Titration ([4]; 45° C. (Closed)): 1.50% | Percentage Drop (%) HPLC ([4]; 45° C. (Open)): 11.08% | Percentage Drop (%) Titration ([4]; 45° C. (Open)): 2.08% | Percentage Drop (%) HPLC ([4]; RT (Closed)): 6.23% | Percentage Drop (%) Titration ([4]; RT (Closed)): 1.58% | Percentage Drop (%) HPLC ([4]; RT (Open)): 7.67% | Percentage Drop (%) Titration ([4]; RT (Open)): 1.39% | Fusidic Acid Assay (%) HPLC ([4]; RT (Closed)): 94.37% | Fusidic Acid Assay (%) Titration ([4]; RT (Closed)): 99.02% | Fusidic Acid Assay (%) HPLC ([4]; RT (Open)): 92.93% | Fusidic Acid Assay (%) Titration ([4]; RT (Open)): 99.21% | Fusidic Acid Initial (%) [4, 6]: 100.6% | loss in 3 Months ([4]; room temperature (open condition)): about 7.7% | Inference ([5]; Dose 10 mcg): Sensitive | Zone Diameter Range (mm) ([5]; Dose 10 mcg): 21-33 mm | Inference ([5]; Dose 20 mcg): Sensitive | Zone Diameter Range (mm) ([5]; Dose 20 mcg): 20-30 mm | Inference ([5]; Dose 50 mcg): Sensitive | Zone Diameter Range (mm) ([5]; Dose 50 mcg): 25-32 mm
